Measurements taken from patent US5840728A, “Conformationally locked nucleoside analogs as antiherpetic agents” (priority 1997, dated 1998).
In brackets after ≈: the same amount, converted by molar mass. Where two headings read alike, the source gives them in different places.

Assays:
[1] = tested on: HSV-1 (herpes simplex type 1); assay: microbe, parasite or virus in culture; settings: for EC50: HSV-1; for activity against HSV-1: in words
From the text: (§1) Compounds 25 and 26 are (S)-methanocarba-T and (±)-(carba-T), respectively. (±)-carba-T was kindly provided by Dr. Y. Fulmer Shealy, Southern Research Institute, Birmingham, Ala. [drawing 5]

[2] = tested on: HSV-2 (herpes simplex type 2); assay: microbe, parasite or virus in culture; settings: for EC50: HSV-2; for activity against HSV-2: in words
From the text: as §1

EBV (Epstein-Barr virus) = assay: microbe, parasite or virus in culture; assay type: cell-based; settings: for activity against EBV: in words
From the text: as §1

[3] = Cytotoxicity in host cells / stationary cells (HFF); assay type: cell-based, human; settings: human, hff cells
From the text: (§2) ^d CC50 = cytotoxic concentration in μg/mL that produces 50%

[4] = Cytotoxicity in growing (rapidly dividing) HFF; assay type: cell-based, human; settings: human, growing hff cells; rapidly dividing cells; read-out: CC50
[5] = Cytotoxicity in EBV host cells (Daudi); assay type: cell-based; settings: human, Table 4, EBV line, host cell not given
herpes viruses = assay: Antiherpetic activity, overall; assay type: cell-based; settings: in words
[6] = tested on: HCMV (human cytomegalovirus); assay: microbe, parasite or virus in culture; assay type: cell-based; settings: for EC50: Human betaherpesvirus 5, Table 5, HCMV, read-out: EC50
[7] = tested on: HFF (human foreskin fibroblasts); assay: Cytotoxicity in host cells / stationary cells (HFF); assay type: cell-based; settings: Table 5; host cell not given
From the text: as §2

[8] = tested on: HCMV (human cytomegalovirus); assay: microbe, parasite or virus in culture; assay type: cell-based
From the text: | ^f plaque reduction assay.

[9] = Human alphaherpesvirus 1, Table 4, plaques reduced by 50%
[10] = Human alphaherpesvirus 2, Table 4, plaques reduced by 50%
[11] = Table 4, HSV-1 and HSV-2 lines, host cell not given
[12] = Human alphaherpesvirus 1, Table 5
[13] = Human alphaherpesvirus 2, Table 5

Compound | EC50 [1, 9] | EC50 [2, 10] | EC50 [1, 12] | EC50 [2, 13] | EC50 [6] | SI (CC50/EC50) [1] | SI (CC50/EC50) [2] | CC50 [3, 11] | CC50 ([3]; stationary cells) | CC50 [4] | SI (CC50/EC50) [6] | CC50 ([3]; Table 5, host cell not given) | antiherpetic activity (herpes viruses) | also measured
O=c1ccn([C@@]23C[C@H](O)[C@@H](CO)[C@@H]2C3)c(=O)[nH]1 [(S)-DMC-U, reference compound] | – | – | > 20 µg/mL | > 20 µg/mL | > 100 µg/mL | < 3.0 | < 3.0 | – | – | – | 1 | 59.1 µg/mL (≈ 248 µM) | – | CC50 [7]: > 100 µg/mL
Nc1ncnc2c1ncn2[C@@]12C[C@H](O)[C@@H](CO)[C@@H]1C2 [(S)-DMC-A, reference compound] | – | – | > 100 µg/mL | > 100 µg/mL | 6.4 µg/mL (≈ 24.5 µM) | 1 | 1 | – | – | – | > 15.6 | > 100 µg/mL | – | activity against HCMV ([6]; in words): active against HCMV; EC50 ([8]; Human betaherpesvirus 5, Table 5, HCMV, plaque reduction assay, read-out: EC50): 2.4 µg/mL (≈ 9.19 µM); SI (CC50/EC50) ([8]; human foreskin fibroblasts): > 41.7
Nc1nc2c(ncn2[C@@]23C[C@H](O)[C@@H](CO)[C@@H]2C3)c(=O)[nH]1 [(S)-DMC-G, reference compound] | – | – | > 20 µg/mL | > 20 µg/mL | > 20 µg/mL | < 3.7 | < 3.7 | – | – | – | < 2.3 | – | – | –
Cc1cn([C@@]23C[C@H](O)[C@@H](CO)[C@@H]2C3)c(=O)[nH]c1=O [Compound 25, (S)-methanocarba-T, reference compound] | – | – | – | – | – | 1 | 1 | – | > 100 µg/mL | > 100 µg/mL | – | – | did not exhibit antiherpetic activity | –

More lines, main results first:

EC50 [1, 9] | EC50 [2, 10] | EC50 [1, 12] | EC50 [2, 13] | EC50 [6] | Compound | SI (CC50/EC50) [1] | SI (CC50/EC50) [2] | CC50 [3, 11] | CC50 ([3]; stationary cells) | CC50 [4] | SI (CC50/EC50) [6] | CC50 ([3]; Table 5, host cell not given) | antiherpetic activity (herpes viruses) | also measured
0.01 µg/mL (≈ 0.0396 µM) | 0.12 µg/mL (≈ 0.476 µM) | – | – | – | Cc1cn([C@H]2C[C@H](O)[C@]3(CO)C[C@H]23)c(=O)[nH]c1=O [Compound 20] | > 2000 | > 167 | > 20 µg/mL | > 100 µg/mL | 32.9 µg/mL (≈ 130 µM) | – | – | – | activity against HSV-1 [1]: strong activity; activity against HSV-1 ([1]; listed as N-methanocarba-T): effective against HSV-1, HSV-2 and EBV; activity against HSV-2 [2]: strong activity; activity against HSV-2 ([2]; listed as N-methanocarba-T): effective against HSV-1, HSV-2 and EBV; SI (CC50/EC50) (EBV (Epstein-Barr virus)): > 222; anti-EBV activity relative to acyclovir (EBV (Epstein-Barr virus); EBV): not as strong as ACV; EC50 (EBV (Epstein-Barr virus); human gammaherpesvirus 4, Table 4, EBV, read-out: EC50): 0.45 µg/mL (≈ 1.78 µM); activity against EBV (EBV (Epstein-Barr virus)): significant anti-EBV activity; activity against EBV (EBV (Epstein-Barr virus); listed as N-methanocarba-T): effective against HSV-1, HSV-2 and EBV; CC50 [5]: > 100 µg/mL; activity relative to acyclovir (herpes viruses; HSV-1 and HSV-2): stronger than observed with acyclovir
> 10 µg/mL | > 10 µg/mL | – | – | – | Cc1cn([C@@H]2C[C@H](CO)[C@@H](O)C2)c(=O)[nH]c1=O (relative stereo) [Compound 26, (±)-(carba-T), reference compound] | 1 | 1 | > 10 µg/mL | > 100 µg/mL | 0.65 µg/mL (≈ 2.71 µM) | – | – | did not exhibit antiherpetic activity | –
